Laboratory results reported in US12077503B2, “Substituted cyclic amides and their use as herbicides” (FMC CORPORATION, priority 2015, dated 2024).
Like-named read-outs stand apart in the source and are kept apart here.

Legend:
Type in all cases: in vivo
[1] = system: Galium (catchweed bedstraw, Galium aparine); test: Test A postemergence; conditions: Galium, post-emergence, 240 h, postemergence; for pest or weed control at 125 g/ha: 125 g ai/ha; for pest or weed control at 500 g/ha: 500 g ai/ha, 0 to 100 scale, 0 is no effect, 100 is complete control
How it was run: (§1)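 Greenhouse, ~10 d after spray; visual injury vs untreated controls, 0 = no effect, 100 = complete control. Preemergence: directed soil spray over planted seeds. Postemergence: plants 2–10 cm, 1–2 leaf stage. Loam/sand blend. Compound in non-phytotoxic solvent with surfactant.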

corn (Zea mays) = test: Test A postemergence; conditions: Zea mays, post-emergence, 240 h, postemergence; for plant injury at 125 g/ha: 125 g ai/ha; for plant injury at 500 g/ha: 500 g ai/ha, 0 to 100 scale, 0 is no effect, 100 is complete control
How it was run: as §1

[2] = system: pigweed (Amaranthus retroflexus); test: Test A postemergence; conditions: Amaranthus retroflexus, post-emergence, 240 h, postemergence; for pest or weed control at 125 g/ha: 125 g ai/ha; for pest or weed control at 500 g/ha: 500 g ai/ha, 0 to 100 scale, 0 is no effect, 100 is complete control
How it was run: as §1

[3] = system: ragweed (common ragweed, Ambrosia elatior); test: Test A postemergence; conditions: Ambrosia artemisiifolia, post-emergence, 240 h, postemergence; for pest or weed control at 125 g/ha: 125 g ai/ha; for pest or weed control at 500 g/ha: 500 g ai/ha, 0 to 100 scale, 0 is no effect, 100 is complete control
How it was run: as §1

[4] = system: giant foxtail (Setaria faberii); test: Test A postemergence; conditions: Setaria faberi, post-emergence, 240 h, postemergence; for pest or weed control at 125 g/ha: 125 g ai/ha; for pest or weed control at 500 g/ha: 500 g ai/ha, 0 to 100 scale, 0 is no effect, 100 is complete control
How it was run: as §1

[5] = system: blackgrass (Alopecurus myosuroides); test: Test A postemergence; conditions: Alopecurus myosuroides, post-emergence, 240 h, postemergence; for pest or weed control at 125 g/ha: 125 g ai/ha; for pest or weed control at 500 g/ha: 500 g ai/ha, 0 to 100 scale, 0 is no effect, 100 is complete control
How it was run: as §1

[6] = system: barnyardgrass (Echinochloa crus-galli); test: Test A postemergence; conditions: Echinochloa crus-galli, post-emergence, 240 h, postemergence; for pest or weed control at 125 g/ha: 125 g ai/ha; for pest or weed control at 500 g/ha: 500 g ai/ha, 0 to 100 scale, 0 is no effect, 100 is complete control
How it was run: as §1

[7] = system: wheat (Triticum aestivum); test: Test A postemergence; conditions: Triticum aestivum, post-emergence, 240 h, postemergence; for plant injury at 125 g/ha: 125 g ai/ha; for plant injury at 500 g/ha: 500 g ai/ha, 0 to 100 scale, 0 is no effect, 100 is complete control
How it was run: as §1

Kochia (Kochia scoparia) = test: Test A postemergence; conditions: Bassia scoparia, post-emergence, 240 h, postemergence; for pest or weed control at 125 g/ha: 125 g ai/ha; for pest or weed control at 500 g/ha: 500 g ai/ha, 0 to 100 scale, 0 is no effect, 100 is complete control
How it was run: as §1

[8] = system: ryegrass, Italian (Italian ryegrass, Lolium multiflorum); test: Test A postemergence; conditions: Lolium multiflorum, post-emergence, 240 h, postemergence; for pest or weed control at 125 g/ha: 125 g ai/ha; for pest or weed control at 500 g/ha: 500 g ai/ha, 0 to 100 scale, 0 is no effect, 100 is complete control
How it was run: as §1

[9] = system: giant foxtail (Setaria faberii); test: Test A preemergence; conditions: Setaria faberi, pre-emergence, 240 h, preemergence, 0 to 100 scale where 0 is no effect and 100 is complete control, read-out: Foxtail, Giant plant response rating; for pest or weed control at 125 g/ha: 125 g ai/ha; for pest or weed control at 500 g/ha: 500 g ai/ha
How it was run: as §1

rice (Oryra sativa) = test: Test B flooded paddy test; conditions: Oryza sativa, 250 g ai/ha, Flood; 0 to 100 scale where 0 is no effect and 100 is complete control; read-out: Rice plant response rating
How it was run: (§2)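 Plants at 2-leaf stage flooded to 3 cm above soil, with compounds applied directly to paddy water and that depth maintained. Plants kept in greenhouse 13–15 d. Visual rating versus controls on a 0 (no effect) to 100 (complete control) scale.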

[10] = system: ducksalad (Heteranthera limosa); test: Test B flooded paddy test; conditions: Heteranthera limosa, 250 g ai/ha, Flood; 0 to 100 scale where 0 is no effect and 100 is complete control; read-out: Ducksalad plant response rating
How it was run: as §2

[11] = system: barnyardgrass (Echinochloa crus-galli); test: Test B flooded paddy test; conditions: Echinochloa crus-galli, 250 g ai/ha, Flood; 0 to 100 scale where 0 is no effect and 100 is complete control; read-out: Barnyardgrass plant response rating
How it was run: as §2

[12] = system: sedge, umbrella (small-flower umbrella sedge, Cyperus difformis); test: Test B flooded paddy test; conditions: Cyperus difformis, 250 g ai/ha, Flood; 0 to 100 scale where 0 is no effect and 100 is complete control; read-out: Sedge, Umbrella plant response rating
How it was run: as §2

[13] = read-out: Galium plant response rating
[14] = read-out: Corn plant response rating
[15] = read-out: Pigweed plant response rating
[16] = read-out: Ragweed plant response rating
[17] = read-out: Foxtail, Giant plant response rating
[18] = read-out: Blackgrass plant response rating
[19] = read-out: Barnyardgrass plant response rating
[20] = read-out: Wheat plant response rating
[21] = read-out: Kochia plant response rating
[22] = read-out: Ryegrass, Italian plant response rating

Compound: CSc1ccccc1NC(=O)[C@H]1C(=O)N(C)C[C@@H]1c1ccc(C(F)(F)F)nc1 [Compound 1198]
- pest or weed control at 125 g/ha ([1]; visual injury vs untreated controls after approx. 10 d, 0 = no effect, 100 = complete control, read-out: Galium plant response rating (0 to 100 scale)): 40%
- pest or weed control at 500 g/ha [1, 13]: 50%
- plant injury at 125 g/ha (corn (Zea mays); visual injury vs untreated controls after approx. 10 d, 0 = no effect, 100 = complete control, read-out: Corn plant response rating (0 to 100 scale)): 0%
- plant injury at 500 g/ha (corn (Zea mays); [14]): 20%
- pest or weed control at 125 g/ha ([2]; visual injury vs untreated controls after approx. 10 d, 0 = no effect, 100 = complete control, read-out: Pigweed plant response rating (0 to 100 scale)): 40%
- pest or weed control at 500 g/ha [2, 15]: 70%
- pest or weed control at 125 g/ha ([3]; visual injury vs untreated controls after approx. 10 d, 0 = no effect, 100 = complete control, read-out: Ragweed plant response rating (0 to 100 scale)): 0%
- pest or weed control at 500 g/ha [3, 16]: 30%
- pest or weed control at 125 g/ha ([4]; visual injury vs untreated controls after approx. 10 d, 0 = no effect, 100 = complete control, read-out: Foxtail, Giant plant response rating (0 to 100 scale)): 80%
- pest or weed control at 500 g/ha [4, 17]: 90%
- pest or weed control at 125 g/ha ([5]; visual injury vs untreated controls after approx. 10 d, 0 = no effect, 100 = complete control, read-out: Blackgrass plant response rating (0 to 100 scale)): 20%
- pest or weed control at 500 g/ha [5, 18]: 60%
- pest or weed control at 125 g/ha ([6]; visual injury vs untreated controls after approx. 10 d, 0 = no effect, 100 = complete control, read-out: Barnyardgrass plant response rating (0 to 100 scale)): 80%
- pest or weed control at 500 g/ha [6, 19]: 90%
- plant injury at 125 g/ha ([7]; visual injury vs untreated controls after approx. 10 d, 0 = no effect, 100 = complete control, read-out: Wheat plant response rating (0 to 100 scale)): 0%
- plant injury at 500 g/ha [7, 20]: 60%
- pest or weed control at 125 g/ha (Kochia (Kochia scoparia); visual injury vs untreated controls after approx. 10 d, 0 = no effect, 100 = complete control, read-out: Kochia plant response rating (0 to 100 scale)): 60%
- pest or weed control at 500 g/ha (Kochia (Kochia scoparia); [21]): 60%
- pest or weed control at 125 g/ha ([8]; visual injury vs untreated controls after approx. 10 d, 0 = no effect, 100 = complete control, read-out: Ryegrass, Italian plant response rating (0 to 100 scale)): 0%
- pest or weed control at 500 g/ha [8, 22]: 30%
- pest or weed control at 125 g/ha ([9]; visual injury rating, approximately 10 d): 100%
- pest or weed control at 500 g/ha [9]: 100%
- pest or weed control at 250 g/ha (rice (Oryra sativa)): 0%
- pest or weed control at 250 g/ha [10]: 40%
- pest or weed control at 250 g/ha [11]: 20%
- pest or weed control at 250 g/ha [12]: 30%

Compound: CCc1cc(CC)cc([C@H]2CNC(=O)[C@@H]2C(=O)Nc2ccccc2F)c1 [Compound 1138]
- pest or weed control at 125 g/ha ([1]; visual injury on 0 to 100 scale (0 no effect, 100 complete control), approx. 10 d, read-out: Galium plant response rating): 20%
- pest or weed control at 500 g/ha [1, 13]: 50%
- plant injury at 125 g/ha (corn (Zea mays); visual injury on 0 to 100 scale (0 no effect, 100 complete control), approx. 10 d, read-out: Corn plant response rating): 50%
- plant injury at 500 g/ha (corn (Zea mays); [14]): 80%
- pest or weed control at 125 g/ha ([2]; visual injury on 0 to 100 scale (0 no effect, 100 complete control), approx. 10 d, read-out: Pigweed plant response rating): 0%
- pest or weed control at 500 g/ha [2, 15]: 0%
- pest or weed control at 125 g/ha ([3]; visual injury on 0 to 100 scale (0 no effect, 100 complete control), approx. 10 d, read-out: Ragweed plant response rating): 0%
- pest or weed control at 500 g/ha [3, 16]: 0%
- pest or weed control at 125 g/ha ([4]; visual injury on 0 to 100 scale (0 no effect, 100 complete control), approx. 10 d, read-out: Foxtail, Giant plant response rating): 50%
- pest or weed control at 500 g/ha [4, 17]: 90%
- pest or weed control at 125 g/ha ([5]; visual injury on 0 to 100 scale (0 no effect, 100 complete control), approx. 10 d, read-out: Blackgrass plant response rating): 30%
- pest or weed control at 500 g/ha [5, 18]: 60%
- pest or weed control at 125 g/ha ([6]; visual injury on 0 to 100 scale (0 no effect, 100 complete control), approx. 10 d, read-out: Barnyardgrass plant response rating): 90%
- pest or weed control at 500 g/ha [6, 19]: 90%
- plant injury at 125 g/ha ([7]; visual injury on 0 to 100 scale (0 no effect, 100 complete control), approx. 10 d, read-out: Wheat plant response rating): 30%
- plant injury at 500 g/ha [7, 20]: 70%
- pest or weed control at 125 g/ha (Kochia (Kochia scoparia); visual injury on 0 to 100 scale (0 no effect, 100 complete control), approx. 10 d, read-out: Kochia plant response rating): 0%
- pest or weed control at 500 g/ha (Kochia (Kochia scoparia); [21]): 0%
- pest or weed control at 125 g/ha ([8]; visual injury on 0 to 100 scale (0 no effect, 100 complete control), approx. 10 d, read-out: Ryegrass, Italian plant response rating): 0%
- pest or weed control at 500 g/ha [8, 22]: 50%
- pest or weed control at 125 g/ha ([9]; approx. 10 d): 90%
- pest or weed control at 500 g/ha [9]: 90%
- pest or weed control at 250 g/ha (rice (Oryra sativa)): 0%
- pest or weed control at 250 g/ha [10]: 75%
- pest or weed control at 250 g/ha [11]: 60%
- pest or weed control at 250 g/ha [12]: 0%
